The source of these data is patent US20260070945A1, “MACROCYCLIC IMMUNOMODULATORS” (Bristol-Myers Squibb Company, priority 2022, published 2026).

Structures are written as SMILES. *1 amine or outer side, *2 acyl side, *3 side chain or, on linkers, in order; H or OH if unused. Where a SMILES comes first, the peptide text is derived from it. Bridges are numbered along the chain shown (N, C = ends). [ ]: non-standard residue; d: D form. The star is where a group is joined. ξ: configuration not given here. Phe(3-CF3) = N[C@@H](Cc1cccc(C(F)(F)F)c1)C(=O)O; Phe(4-CF3) = N[C@@H](Cc1ccc(C(F)(F)F)cc1)C(=O)O; Phe(4-COOH) = N[C@@H](Cc1ccc(C(=O)O)cc1)C(=O)O; Bip = N[C@@H](Cc1ccc(-c2ccccc2)cc1)C(=O)O; NH(CH2)14COOH = O=C(O)CCCCCCCCCCCCCCN*; Phe(3-Me) = Cc1cccc(C[C@H](N)C(=O)O)c1; βAsp = O=C(O)[C@H](CC(=O)[*:2])N[*:1]; Val(3-OH) = CC(C)(O)[C@H](N)C(=O)O; Cha = N[C@@H](CC1CCCCC1)C(=O)O; Cit = NC(=O)NCCC[C@H](N)C(=O)O; Ile(3ξ) = CCC(C)[C@H](N)C(=O)O; Thr(3ξ) = CC(O)[C@H](N)C(=O)O; 12Ado = NCCCCCCCCCCCC(=O)O; hSer = N[C@@H](CCO)C(=O)O; Carboxymethyl = O=C(O)C*; NMeA = CN[C@@H](C)C(=O)O; Orn = NCCC[C@H](N)C(=O)O; Aun = NCCCCCCCCCCC(=O)O; Dab = NCC[C@H](N)C(=O)O; Nva = CCC[C@H](N)C(=O)O; AEEA = NCCOCCOCC(=O)O

In one test the target is T1, PD-1/PD-L1 interaction (PE-labeled human PD-L1-Ig binding to Jurkat cell line over-expressing human PD-1) (Homo sapiens, UniProt Q15116).
T1 construct: expressed in transfected cells; host or cells: Jurkat
T1 sequence (Q15116 25-288): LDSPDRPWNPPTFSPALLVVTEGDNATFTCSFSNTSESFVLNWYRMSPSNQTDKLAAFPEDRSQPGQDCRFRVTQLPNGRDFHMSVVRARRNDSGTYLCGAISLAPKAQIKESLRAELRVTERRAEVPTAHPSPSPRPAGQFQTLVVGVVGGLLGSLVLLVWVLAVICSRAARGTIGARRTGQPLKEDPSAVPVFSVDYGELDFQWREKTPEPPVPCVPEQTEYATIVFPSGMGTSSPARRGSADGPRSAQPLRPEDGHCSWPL
Briefly: Jurkat-PD-1 Cell Binding High-Content Screening Assay (CBA). The settings on record: Jurkat-hPD-1 cells, PE-labeled PD-L1-Ig 20 nM final; read-out: Jurkat HPD1 PDL1 IC50. The procedure, abridged: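 Jurkat cells overexpressing human PD-1 (8×10^3/well, DMEM + 10% FCS) preincubated with compound 2 h at 37 °C, then PE-labelled human PD-L1-Ig (20 nM final) for 1 h. Cells fixed in paraformaldehyde with Hoechst 33342; bound PD-L1 quantified by high-content imaging.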
As usually defined, the IC50 is the concentration that inhibits the measured activity by half. Take `Cc1cccc(C[C@@H]2NC(=O)[C@H](CC(=O)O)NC(=O)[C@H](Cc3ccc(OCC(=O)O)cc3)NC(=O)[C@H](C(C)O)NC(=O)CSC[C@@H](C(=O)N[C@@H](CCN)C(=O)NCCCCCCCCCCC(=O)O)NC(=O)[C@H](C(C)O)NC(=O)[C@H](C(C)C)NC(=O)[C@H](CC3CCCCC3)NC(=O)[C@H](CCN)NC(=O)[C@@H](CC(C)C)NC(=O)[C@H](C)N(C)C(=O)[C@H](CCCNC(N)=O)NC(=O)[C@H](Cc3ccc(-c4ccccc4)cc3)NC(=O)[C@H](C(C)C)NC2=O)c1` (stereo partly drawn) [Example 2336] ({CH2CO}-[Thr(3ξ)]Y(Carboxymethyl)D[Phe(3-Me)]V[Bip][Cit][NMeA][dL][Dab][Cha]V[Thr(3ξ)]C[Dab][Aun]-OH; thioether N-14): the half-maximal inhibitory concentration (IC50) came out at 6.7 nM.
Still for that read-out and setting: then `Cc1cccc(C[C@@H]2NC(=O)[C@H](CC(=O)O)NC(=O)[C@H](Cc3ccc(C(=O)O)cc3)NC(=O)[C@H](Cc3ccc(OCC(=O)O)cc3)NC(=O)CSC[C@@H](C(=O)NCC(=O)N[C@@H](CCC(=O)O)C(=O)NCCOCCOCC(=O)N[C@@H](CC(=O)NCCOCCOCC(=O)NCCCCCCCCCCC(=O)O)C(=O)O)NC(=O)[C@H](CO)NC(=O)[C@H](C(C)C)NC(=O)[C@H](CC(C)C)NC(=O)[C@H](CC(N)=O)NC(=O)[C@@H](CC(C)C)NC(=O)[C@H](C)N(C)C(=O)[C@H](C(C)C)NC(=O)[C@H](Cc3ccc(-c4ccccc4)cc3)NC(=O)[C@H](CC(C)C)NC2=O)c1` [Example 1021] ({CH2CO}-Y(Carboxymethyl)[Phe(4-COOH)]D[Phe(3-Me)]L[Bip]V[NMeA][dL]NLVSCGE[AEEA][βAsp][AEEA][Aun]-OH; thioether N-14), with 76.2 nM; and `CC(=O)NCCCC[C@@H]1NC(=O)[C@H](Cc2ccc(-c3ccccc3)cc2)NC(=O)[C@H](Cc2ccc(O)cc2)NC(=O)[C@H](Cc2cccc(C)c2)NC(=O)[C@H](CC(=O)O)NC(=O)[C@H](Cc2ccc(OCC(=O)O)cc2)NC(=O)[C@H](Cc2ccc(OCC(=O)O)cc2)NC(=O)CSC[C@@H](C(=O)NCCOCCOCC(=O)NCCCCCCCCCCC(=O)O)NC(=O)[C@H](CCO)NC(=O)[C@H](C(C)C)NC(=O)[C@H](CC2CCCCC2)NC(=O)[C@H](CCN)NC(=O)[C@@H](CC(C)C)NC(=O)[C@H](C)N(C)C1=O` [Example 2422] ({CH2CO}-Y(Carboxymethyl)Y(Carboxymethyl)D[Phe(3-Me)]Y[Bip]K(Ac)[NMeA][dL][Dab][Cha]V[hSer]C[AEEA][Aun]-OH; thioether N-14), with 24.9 nM; and `Cc1cccc(C[C@@H]2NC(=O)[C@H](CC(=O)O)NC(=O)[C@H](Cc3ccc(C(=O)O)cc3)NC(=O)[C@H](Cc3ccc(OCC(=O)O)cc3)NC(=O)CSC[C@@H](C(=O)NCCOCCOCC(=O)NCCCCCCCCCCC(=O)O)NC(=O)[C@H](CO)NC(=O)[C@H](C(C)C)NC(=O)[C@H](CC(C)C)NC(=O)[C@H](CC(N)=O)NC(=O)[C@@H](CC(C)C)NC(=O)[C@H](C)N(C)C(=O)[C@H](C(C)C)NC(=O)[C@H](Cc3ccc(-c4ccccc4)cc3)NC(=O)[C@H](CC(C)C)NC2=O)c1` [Example 1027] ({CH2CO}-Y(Carboxymethyl)[Phe(4-COOH)]D[Phe(3-Me)]L[Bip]V[NMeA][dL]NLVSC[AEEA][Aun]-OH; thioether N-14), with 21.9 nM.
Same read-out and setting: then `CC(C)C[C@@H]1NC(=O)[C@H](Cc2c[nH]c3ccccc23)NC(=O)[C@H](CC(=O)O)NC(=O)[C@H](Cc2ccc(C(=O)O)cc2)NC(=O)[C@H](Cc2ccc(OCC(=O)O)cc2)NC(=O)CSC[C@@H](C(=O)N[C@@H](CCCCN)C(=O)NCCCCCCCCCCC(=O)O)NC(=O)[C@H](CCCN)NC(=O)[C@H](C(C)C)NC(=O)[C@H](CC2CCCCC2)NC(=O)[C@H](CCN)NC(=O)[C@@H](CC(C)C)NC(=O)[C@H](C)N(C)C(=O)[C@H](C(C)C)NC(=O)[C@H](Cc2ccc(-c3ccccc3)cc2)NC1=O` [Example 2159] ({CH2CO}-Y(Carboxymethyl)[Phe(4-COOH)]DWL[Bip]V[NMeA][dL][Dab][Cha]V[Orn]CK[Aun]-OH; thioether N-14), with 17.8 nM.
Take `CC(C)C[C@H]1NC(=O)[C@H](C)N(C)C(=O)[C@H](CCCNC(N)=O)NC(=O)[C@H](Cc2ccc(-c3ccccc3)cc2)NC(=O)[C@H](Cc2ccc(O)cc2)NC(=O)[C@H](Cc2c[nH]c3ccccc23)NC(=O)[C@H](CC(=O)O)NC(=O)[C@H](Cc2ccc(OCC(=O)O)cc2)NC(=O)[C@H](CCCNC(=N)N)NC(=O)CSC[C@@H](C(=O)N[C@@H](CCN)C(=O)NCCCCCCCCCCC(=O)O)NC(=O)[C@H]([C@@H](C)O)NC(=O)[C@H](C(C)C)NC(=O)[C@H](CC2CCCCC2)NC(=O)[C@H](CCN)NC1=O` [Example 1354] ({CH2CO}-RY(Carboxymethyl)DWY[Bip][Cit][NMeA][dL][Dab][Cha]VTC[Dab][Aun]-OH; thioether N-14): the concentration for half-maximal inhibition (IC50) was 42.2 nM.
Same read-out and setting: then `CCC(C)[C@@H]1NC(=O)[C@H](Cc2ccc(-c3ccccc3)cc2)NC(=O)[C@H](CC(C)C)NC(=O)[C@H](Cc2c[nH]c3ccccc23)NC(=O)[C@H](CC(=O)O)NC(=O)[C@H](Cc2ccc(OCC(=O)O)cc2)NC(=O)[C@H](Cc2ccc(OCC(=O)O)cc2)NC(=O)CSC[C@@H](C(=O)N[C@@H](CCN)C(=O)NCCOCCOCC(=O)NCCCCCCCCCCC(=O)O)NC(=O)[C@H](CO)NC(=O)[C@H](C(C)C)NC(=O)[C@H](CC(C)C)NC(=O)[C@H](CC(N)=O)NC(=O)[C@@H](CC(C)C)NC(=O)[C@H](C)N(C)C1=O` (stereo partly drawn) [Example 2038] ({CH2CO}-Y(Carboxymethyl)Y(Carboxymethyl)DWL[Bip][Ile(3ξ)][NMeA][dL]NLVSC[Dab][AEEA][Aun]-OH; thioether N-14), with 29.6 nM.
As to `Cc1cccc(C[C@@H]2NC(=O)[C@H](CC(=O)O)NC(=O)[C@H](Cc3ccc(C(=O)O)cc3)NC(=O)[C@H](Cc3ccc(OCC(=O)O)cc3)NC(=O)CSC[C@@H](C(=O)NCCCCCCCCCCC(=O)O)NC(=O)[C@H](CCC(=O)O)NC(=O)[C@H](C(C)C)NC(=O)[C@H](CC3CCCCC3)NC(=O)[C@H](CCN)NC(=O)[C@@H](CC(C)C)NC(=O)[C@H](C)N(C)C(=O)[C@H](Cc3ccc(O)cc3)NC(=O)[C@H](Cc3ccc(-c4ccccc4)cc3)NC(=O)[C@H](CC(C)C)NC2=O)c1` [Example 2254] ({CH2CO}-Y(Carboxymethyl)[Phe(4-COOH)]D[Phe(3-Me)]L[Bip]Y[NMeA][dL][Dab][Cha]VEC[Aun]-OH; thioether N-14), the IC50 worked out at 183 nM.

Staying with this test, now noted: PE-labeled PD-L1-Ig 20 nM final, Jurkat-hPD-1 cells; read-out: Jurkat HPD1 PDL1 IC50.
With `CC(=O)NCCCC[C@@H]1NC(=O)[C@H](C(C)(C)O)NC(=O)[C@H](CC2CCCCC2)NC(=O)[C@H](CCN)NC(=O)[C@@H](CC(C)C)NC(=O)[C@H](C)N(C)C(=O)[C@H](CCCNC(N)=O)NC(=O)[C@H](Cc2ccc(-c3ccccc3)cc2)NC(=O)[C@H](Cc2ccc(OCC(=O)O)cc2)NC(=O)[C@H](Cc2cccc(C(F)(F)F)c2)NC(=O)[C@H](CC(=O)O)NC(=O)[C@H](Cc2ccc(OCC(=O)O)cc2)NC(=O)[C@H](CCN)NC(=O)CSC[C@@H](C(=O)N[C@@H](CCN)C(=O)NCCCCCCCCCCCCCCC(=O)O)NC1=O` [Example 2623] ({CH2CO}-[Dab]Y(Carboxymethyl)D[Phe(3-CF3)]Y(Carboxymethyl)[Bip][Cit][NMeA][dL][Dab][Cha][Val(3-OH)]K(Ac)C[Dab]-{NH(CH2)14COOH}; thioether N-14), the concentration for half-maximal inhibition (IC50) turned out to be 99.4 nM.
The same measure, in the same setting: then `Cc1cccc(C[C@@H]2NC(=O)[C@H](CC(=O)O)NC(=O)[C@H](Cc3ccc(OCC(=O)O)cc3)NC(=O)[C@H]([C@@H](C)O)NC(=O)CSC[C@@H](C(=O)N[C@@H](CCN)C(=O)NCCOCCOCC(=O)NCCCCCCCCCCCC(=O)O)NC(=O)CNC(=O)[C@H](C(C)C)NC(=O)[C@H](CC3CCCCC3)NC(=O)[C@H](CCN)NC(=O)[C@@H](CC(C)C)NC(=O)[C@H](C)N(C)C(=O)[C@H](Cc3ccc(OCC(=O)O)cc3)NC(=O)[C@H](Cc3ccc(-c4ccccc4)cc3)NC(=O)[C@H](Cc3ccc(OCC(=O)O)cc3)NC2=O)c1` [Example 2664] ({CH2CO}-TY(Carboxymethyl)D[Phe(3-Me)]Y(Carboxymethyl)[Bip]Y(Carboxymethyl)[NMeA][dL][Dab][Cha]VGC[Dab][AEEA][12Ado]-OH; thioether N-14), with 2.3 nM.
Consider `Cc1cccc(C[C@@H]2NC(=O)[C@H](CC(=O)O)NC(=O)[C@H](Cc3ccc(C(=O)O)cc3)NC(=O)[C@H](C(C)O)NC(=O)CSC[C@@H](C(=O)N[C@@H](CCN)C(=O)NCCOCCOCC(=O)NCCCCCCCCCCC(=O)O)NC(=O)[C@H](CCC(=O)O)NC(=O)[C@H](C(C)O)NC(=O)[C@H](CC3CCCCC3)NC(=O)[C@H](CCN)NC(=O)[C@@H](CC(C)C)NC(=O)[C@H](C)N(C)C(=O)[C@H](Cc3ccc(C(=O)O)cc3)NC(=O)[C@H](Cc3ccc(-c4ccccc4)cc3)NC(=O)[C@H](Cc3ccc(C(=O)O)cc3)NC2=O)c1` (stereo partly drawn) [Example 2555] ({CH2CO}-[Thr(3ξ)][Phe(4-COOH)]D[Phe(3-Me)][Phe(4-COOH)][Bip][Phe(4-COOH)][NMeA][dL][Dab][Cha][Thr(3ξ)]EC[Dab][AEEA][Aun]-OH; thioether N-14), for which the half-inhibitory concentration (IC50) stood at 20.2 nM.
Turning to `CCC[C@@H]1NC(=O)[C@H](C(C)(C)O)NC(=O)[C@H](CC2CCCCC2)NC(=O)[C@H](CCN)NC(=O)[C@@H](CC(C)C)NC(=O)[C@H](C)N(C)C(=O)[C@H](Cc2ccc(C(=O)O)cc2)NC(=O)[C@H](Cc2ccc(-c3ccccc3)cc2)NC(=O)[C@H](Cc2ccc(C(=O)O)cc2)NC(=O)[C@H](Cc2cccc(C)c2)NC(=O)[C@H](CC(=O)O)NC(=O)[C@H](Cc2ccc(C(=O)O)cc2)NC(=O)[C@H](Cc2ccc(C(F)(F)F)cc2)NC(=O)CSC[C@@H](C(=O)N[C@@H](CCN)C(=O)NCCCCCCCCCCC(=O)O)NC1=O` [Example 2583] ({CH2CO}-[Phe(4-CF3)][Phe(4-COOH)]D[Phe(3-Me)][Phe(4-COOH)][Bip][Phe(4-COOH)][NMeA][dL][Dab][Cha][Val(3-OH)][Nva]C[Dab][Aun]-OH; thioether N-14), the IC50 came to 37.5 nM.
